# Activity calls are given as the source filed them. The calls are words filed in the database; no cut-off is given here.
# Experiments:
# Oryctolagus cuniculus [1] = assay: Antihyperlipidemic activity in high fat-high cholesterol fed New Zealand Oryctolagus cuniculus (rabbit) assessed as triglyceride level in blood at 15 mg/kg, po for 40 days (reference value: 2.07 +/- 0.33 mmol/l); assay type: functional
# Oryctolagus cuniculus [2] = assay: Toxicity in hyperlipidemic New Zealand Oryctolagus cuniculus (rabbit) assessed as blood urea nitrogen level at 10 mg/kg/day, po for 2 months (reference value: 7.25 +/- 1.46 mmol/l); assay type: organism-based; set-up: route oral; conditions: in vivo
# Oryctolagus cuniculus [3] = assay: Toxicity in hyperlipidemic New Zealand Oryctolagus cuniculus (rabbit) assessed as histopathological examination of kidney at 5 to 15 mg/kg/day, po for 2 months by hematoxylin-eosin staining analysis; assay type: organism-based; set-up: route oral; conditions: in vivo
# Oryctolagus cuniculus [4] = assay: Toxicity in hyperlipidemic New Zealand Oryctolagus cuniculus (rabbit) assessed ashistopathological examination of pancreas at 5 to 15 mg/kg/day, po for 2 months by hematoxylin-eosin staining analysis; assay type: organism-based; set-up: route oral; conditions: in vivo
# Oryctolagus cuniculus [5] = assay: Antihyperlipidemic activity in high fat-high cholesterol fed New Zealand Oryctolagus cuniculus (rabbit) assessed as low-density lipoprotein-cholesterol level in blood at 5 mg/kg, po for 40 days (reference value: 3.47 +/- 0.44 mmol/l); assay type: functional
# Oryctolagus cuniculus [6] = assay: Toxicity in hyperlipidemic New Zealand Oryctolagus cuniculus (rabbit) assessed as histopathological examination of heart at 5 to 15 mg/kg/day, po for 2 months by hematoxylin-eosin staining analysis; assay type: organism-based; set-up: route oral; conditions: in vivo
# Oryctolagus cuniculus [7] = assay: Antihyperlipidemic activity in high fat-high cholesterol fed New Zealand Oryctolagus cuniculus (rabbit) assessed as low-density lipoprotein-cholesterol level in blood at 15 mg/kg, po for 40 days (reference value: 3.45 +/- 0.56 mmol/l); assay type: functional
# [8] = Toxicity in Mus musculus Kunming (mouse); assay type: organism-based; conditions: in vivo
# Oryctolagus cuniculus [9] = assay: Toxicity in high fat-high cholesterol fed New Zealand Oryctolagus cuniculus (rabbit) assessed as mortality at 15 mg/kg, po for 40 days; assay type: organism-based; set-up: dose 15 mg/kg, route oral; conditions: in vivo, 960 h
# Oryctolagus cuniculus [10] = assay: Toxicity in hyperlipidemic New Zealand Oryctolagus cuniculus (rabbit) assessed as effect on pancreas coefficient at 5 to 15 mg/kg/day, po for 2 months; assay type: organism-based; set-up: route oral; conditions: in vivo
# Oryctolagus cuniculus [11] = assay: Antihyperlipidemic activity in high fat-high cholesterol fed New Zealand Oryctolagus cuniculus (rabbit) assessed as total cholesterol level in blood at 5 mg/kg, po for 40 days (reference value: 8.74 +/- 0.53 mmol/l); assay type: functional
# Oryctolagus cuniculus [12] = assay: Reduction in number of lipid droplets in liver cells of high fat-high cholesterol fed New Zealand Oryctolagus cuniculus (rabbit) at 10 to 15 mg/kg, po for 2 months by hematoxylin-eosin staining analysis; assay type: functional, organism-based
# Oryctolagus cuniculus [13] = assay: Toxicity in hyperlipidemic New Zealand Oryctolagus cuniculus (rabbit) assessed as effect on liver coefficient at 5 to 15 mg/kg/day, po for 2 months; assay type: organism-based; set-up: route oral; conditions: in vivo
# Oryctolagus cuniculus [14] = assay: Toxicity in hyperlipidemic New Zealand Oryctolagus cuniculus (rabbit) assessed as morbidity at 5 to 15 mg/kg/day, po for 2 months; assay type: organism-based; set-up: route oral; conditions: in vivo
# Oryctolagus cuniculus [15] = assay: Toxicity in hyperlipidemic New Zealand Oryctolagus cuniculus (rabbit) assessed as total bilirubin level at 15 mg/kg/day, po for 2 months (reference value: 28.45 +/- 11.55 Umol/l); assay type: organism-based; set-up: route oral; conditions: in vivo
# Oryctolagus cuniculus [16] = assay: Toxicity in hyperlipidemic New Zealand Oryctolagus cuniculus (rabbit) assessed as effect on heart coefficient at 5 to 15 mg/kg/day, po for 2 months; assay type: organism-based; set-up: route oral; conditions: in vivo
# Oryctolagus cuniculus [17] = assay: Toxicity in hyperlipidemic New Zealand Oryctolagus cuniculus (rabbit) assessed as total bilirubin level at 5 mg/kg/day, po for 2 months (reference value: 28.45 +/- 11.55 Umol/l); assay type: organism-based; set-up: route oral; conditions: in vivo
# Oryctolagus cuniculus [18] = assay: Antihyperlipidemic activity in high fat-high cholesterol fed New Zealand Oryctolagus cuniculus (rabbit) assessed as low-density lipoprotein-cholesterol level in blood at 10 mg/kg, po for 40 days (reference value: 3.47 +/- 0.44 mmol/l); assay type: functional
# Oryctolagus cuniculus [19] = assay: Toxicity in hyperlipidemic New Zealand Oryctolagus cuniculus (rabbit) assessed as alanine aminotransferase level at 5 mg/kg/day, po for 2 months (reference value: 92.14 +/- 14.3 U/l); assay type: organism-based; set-up: route oral; conditions: in vivo
# Oryctolagus cuniculus [20] = assay: Toxicity in hyperlipidemic New Zealand Oryctolagus cuniculus (rabbit) assessed as alanine aminotransferase level at 10 mg/kg/day, po for 2 months (reference value: 92.14 +/- 14.3 U/l); assay type: organism-based; set-up: route oral; conditions: in vivo
# Oryctolagus cuniculus [21] = assay: Antihyperlipidemic activity in high fat-high cholesterol fed New Zealand Oryctolagus cuniculus (rabbit) assessed as total cholesterol level in blood at 10 mg/kg, po for 40 days (reference value: 8.74 +/- 0.53 mmol/l); assay type: functional
# Oryctolagus cuniculus [22] = assay: Toxicity in hyperlipidemic New Zealand Oryctolagus cuniculus (rabbit) assessed as blood urea nitrogen level at 5 mg/kg/day, po for 2 months (reference value: 7.25 +/- 1.46 mmol/l); assay type: organism-based; set-up: route oral; conditions: in vivo
# Oryctolagus cuniculus [23] = assay: Antihyperlipidemic activity in high fat-high cholesterol fed New Zealand Oryctolagus cuniculus (rabbit) assessed as high-density lipoprotein-cholesterol level in blood at 15 mg/kg, po for 40 days (reference value: 0.69 +/- 0.02 mmol/l); assay type: functional
# Oryctolagus cuniculus [24] = assay: Toxicity in hyperlipidemic New Zealand Oryctolagus cuniculus (rabbit) assessed as total bilirubin level at 10 mg/kg/day, po for 2 months (reference value: 28.45 +/- 11.55 Umol/l); assay type: organism-based; set-up: route oral; conditions: in vivo
# Oryctolagus cuniculus [25] = assay: Reduction in hepatic steatosis and appearance of inflammatory cell in high fat-high cholesterol fed New Zealand Oryctolagus cuniculus (rabbit) at 5 mg/kg, po for 2 months by hematoxylin-eosin staining analysis; assay type: functional, organism-based; set-up: dose 5 mg/kg
# Oryctolagus cuniculus [26] = assay: Antihyperlipidemic activity in high fat-high cholesterol fed New Zealand Oryctolagus cuniculus (rabbit) assessed as triglyceride level in blood at 15 mg/kg, po for 40 days (reference value: 2.11 +/- 0.43 mmol/l); assay type: functional
# Oryctolagus cuniculus [27] = assay: Toxicity in hyperlipidemic New Zealand Oryctolagus cuniculus (rabbit) assessed as effect on spleen coefficient at 5 to 15 mg/kg/day, po for 2 months; assay type: organism-based; set-up: route oral; conditions: in vivo
# Oryctolagus cuniculus [28] = assay: Antihyperlipidemic activity in high fat-high cholesterol fed New Zealand Oryctolagus cuniculus (rabbit) assessed as low-density lipoprotein-cholesterol level in blood at 15 mg/kg, po for 40 days (reference value: 3.47 +/- 0.44 mmol/l); assay type: functional
# Oryctolagus cuniculus [29] = assay: Antihyperlipidemic activity in high fat-high cholesterol fed New Zealand Oryctolagus cuniculus (rabbit) assessed as total cholesterol level in blood at 15 mg/kg, po for 40 days (reference value: 8.89 +/- 0.53 mmol/l); assay type: functional
# Oryctolagus cuniculus [30] = assay: Toxicity in hyperlipidemic New Zealand Oryctolagus cuniculus (rabbit) assessed as effect on kidney coefficient at 5 to 15 mg/kg/day, po for 2 months; assay type: organism-based; set-up: route oral; conditions: in vivo
# Oryctolagus cuniculus [31] = assay: Antihyperlipidemic activity in high fat-high cholesterol fed New Zealand Oryctolagus cuniculus (rabbit) assessed as total cholesterol level in blood at 15 mg/kg, po for 40 days (reference value: 8.74 +/- 0.53 mmol/l); assay type: functional
# Oryctolagus cuniculus [32] = assay: Toxicity in hyperlipidemic New Zealand Oryctolagus cuniculus (rabbit) assessed as histopathological examination of liver at 5 to 15 mg/kg/day, po for 2 months by hematoxylin-eosin staining analysis; assay type: organism-based; set-up: route oral; conditions: in vivo
# Oryctolagus cuniculus [33] = assay: Antihyperlipidemic activity in high fat-high cholesterol fed New Zealand Oryctolagus cuniculus (rabbit) assessed as high-density lipoprotein-cholesterol level in blood at 5 mg/kg, po for 40 days (reference value: 0.69 +/- 0.02 mmol/l); assay type: functional
structure (smiles),measurement,setting,value
CCCCCCCCCCCCCCCCc1c2c(OC)c(OC)ccc2cc2[n+]1CCc1cc3c(cc1-2)OCO3.[Cl-] [8-HEXADECYL-BERBERINE CHLORIDE],Activity,Oryctolagus cuniculus [1],1.25e+06 nmol/L
same,Activity,Oryctolagus cuniculus [2],4.73 mmol/L
same,Activity,Oryctolagus cuniculus [3],Non-toxic
same,Activity,Oryctolagus cuniculus [4],Non-toxic
same,Activity,Oryctolagus cuniculus [5],2.67e+06 nmol/L
same,Activity,Oryctolagus cuniculus [6],Non-toxic
same,Activity,Oryctolagus cuniculus [7],2.02e+06 nmol/L
same,LD50,[8],> 1000 mg/kg
same,Activity,Oryctolagus cuniculus [9],Non-toxic
same,Activity,Oryctolagus cuniculus [10],Non-toxic
same,Activity,Oryctolagus cuniculus [11],6.92e+06 nmol/L
same,inhibition,Oryctolagus cuniculus [12],Active
same,Activity,Oryctolagus cuniculus [13],Non-toxic
same,Activity,Oryctolagus cuniculus [14],Non-toxic
same,Activity,Oryctolagus cuniculus [15],12.8 µmol/L
same,Activity,Oryctolagus cuniculus [16],Non-toxic
same,Activity,Oryctolagus cuniculus [17],15.6 µmol/L
same,Activity,Oryctolagus cuniculus [18],2.46e+06 nmol/L
same,Activity,Oryctolagus cuniculus [19],82.36 U/L
same,Activity,Oryctolagus cuniculus [20],71.53 U/L
same,Activity,Oryctolagus cuniculus [21],4.26e+06 nmol/L
same,Activity,Oryctolagus cuniculus [22],5.45 mmol/L
same,Activity,Oryctolagus cuniculus [23],750000 nmol/L
same,Activity,Oryctolagus cuniculus [24],13.3 µmol/L
same,inhibition,Oryctolagus cuniculus [25],Active
same,Activity,Oryctolagus cuniculus [26],1.58e+06 nmol/L
same,Activity,Oryctolagus cuniculus [27],Non-toxic
same,Activity,Oryctolagus cuniculus [28],2.05e+06 nmol/L
same,Activity,Oryctolagus cuniculus [29],2.22e+06 nmol/L
same,Activity,Oryctolagus cuniculus [30],Non-toxic
same,Activity,Oryctolagus cuniculus [31],2.28e+06 nmol/L
same,Activity,Oryctolagus cuniculus [32],Non-toxic
same,Activity,Oryctolagus cuniculus [33],700000 nmol/L

# From ChEMBL document CHEMBL3046105, “Synthesis and antihyperlipidemic efficiency of berberine-based HMG-CoA reductase inhibitor” (Med Chem Res, 2012)
